The text below walks through data of US8734837B2, “Enhancement of development of oviparous species by in ovo feeding of enteric modulators” (North Carolina State University, priority 2000, dated 2014).

Common to all, as to type: in vivo
Assay [1] is described as follows: Liver glycogen of turkey poults by HMB dosage injected in ovo (Example 10, FIG. 7). As to conditions: turkey poults at hatch; all HMB dosage levels (0.1-100.0 milligrams). The procedure: (§1) Three hundred commercial turkey eggs were stored for three weeks in a cooler at 55° F. and then placed in an egg incubator. After 24 days of incubation, eggs identified as fertile by candling the eggs were randomly assigned to 5 groups of 50 eggs. Each group of 50 eggs was then injected into the air cell at a depth of 0.25 inches with a 0.10 ml saline (0.89% NaCl) solution containing 0, 0.1, 1.0, 10.0, and 100.0 milligrams of Ca-HMB.
(§2) After injection, the eggs were placed in hatching baskets such that each treatment was equally represented in each location of the incubator. Hatched poults were recovered from the incubator at 28 days of incubation and the number of hatched poults per treatment group recorded. The hatched poults were then sacrificed and blood glucose was determined in accordance with known techniques (see Donaldson and Christensen, Comp. Biochem. Physiol. 98A, 347-350 (1991)). Livers were removed and glycogen content of each liver was determined by known techniques (see Dreiling et al., Meat Sci. 20, 167-177 (1987)).

Assay [2] can be described thus: Hatchability rate of turkey poults by HMB dosage injected in ovo (Example 10, FIG. 6). The method, then: as §1, §2
Assay [3] in a line: Plasma glucose of turkey poults by HMB dosage injected in ovo (Example 10, FIG. 8). The conditions noted are these: turkey poults at hatch. The method, then:
as §1, §2

For `CC(C)(O)CC(=O)O` [HMB, beta-hydroxy-beta-methylbutyrate], the “Liver glycogen content, increase compared with the control treatment” value in assay [1] is “about 40%”. The compound further came in with a Hatchability rate in assay [2] (turkey eggs stored 3 weeks, 0.1 and 1.0 milligrams HMB in 0.1 ml saline into air cell at 24 days of incubation, control 72.3%) of 81.6%. In assay [2] (turkey eggs, HMB injected above 1.0 milligrams), the “Hatchability rate (in words)” value was “hatchability rate decreased”. The “Plasma glucose concentration (in words)” value in assay [3] (0.1 milligram HMB dosage) is “significantly increased plasma glucose concentration”; in assay [3] (other HMB dosage levels (1.0, 10.0, 100.0 milligrams)), “no significant effect on plasma glucose”.
